Results as given in PubChem BioAssay AID248 (DTP/NCI, 2004).
Values joined by “and” are separate entries in the source; they are usually repeats but may differ in a detail not shown here. Equal values may be shown once. Toxic doses and inconclusive results are not listed.

System: L1210 leukemia ip in BDF1 mice, survival T/C
Experiment: NCI In Vivo Anticancer Drug Screen. Data for tumor model L1210 Leukemia (intraperitoneal) in B6D2F1 (BDF1) mice
Settings: endpoint: mean survival time, higher = longer survival
Summary of the method: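 Transplanted-tumor mice were given test agent; controls received vehicle only. Survival readings from the two groups were divided (treated over control).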

[1] = dose: 100.0 mg/kg/injection, schedule: Q01DX001 (ip), vehicle: carboxymethylcellulose (CMC)
[2] = dose: 200.0 mg/kg/injection, schedule: Q01DX001 (ip), vehicle: carboxymethylcellulose (CMC)
[3] = dose: 400.0 mg/kg/injection, schedule: Q01DX001 (ip), vehicle: carboxymethylcellulose (CMC)
[4] = dose: 100.0 mg/kg/injection, schedule: Q04DX002 (ip), vehicle: Klucel (hydroxypropylcellulose) (HPC)
[5] = dose: 400.0 mg/kg/injection, schedule: Q04DX002 (ip), vehicle: Klucel (hydroxypropylcellulose) (HPC)
[6] = dose: 100.0 mg/kg/injection, schedule: Q04DX003 (ip), vehicle: saline with Tween-80
[7] = dose: 200.0 mg/kg/injection, schedule: Q04DX002 (ip), vehicle: Klucel (hydroxypropylcellulose) (HPC)
[8] = dose: 200.0 mg/kg/injection, schedule: Q04DX003 (ip), vehicle: saline with Tween-80
[9] = dose: 400.0 mg/kg/injection, schedule: Q04DX003 (ip), vehicle: saline with Tween-80
[10] = dose: 100.0 mg/kg/injection, schedule: Q01DX001 (ip), vehicle: other
[11] = dose: 200.0 mg/kg/injection, schedule: Q01DX001 (ip), vehicle: other
[12] = dose: 400.0 mg/kg/injection, schedule: Q01DX001 (ip), vehicle: other
[13] = dose: 100.0 mg/kg/injection, schedule: Q01DX009 (ip), vehicle: saline with Tween-80
[14] = dose: 200.0 mg/kg/injection, schedule: Q01DX009 (ip), vehicle: saline with Tween-80
[15] = dose: 100.0 mg/kg/injection, schedule: Q01DX009 (ip), vehicle: Klucel (hydroxypropylcellulose) (HPC)
[16] = dose: 200.0 mg/kg/injection, schedule: Q01DX009 (ip), vehicle: Klucel (hydroxypropylcellulose) (HPC)
[17] = dose: 400.0 mg/kg/injection, schedule: Q01DX009 (ip), vehicle: Klucel (hydroxypropylcellulose) (HPC)
[18] = dose: 100.0 mg/kg/injection, schedule: Q04DX002 (ip), vehicle: saline with Tween-80
[19] = dose: 200.0 mg/kg/injection, schedule: Q04DX002 (ip), vehicle: saline with Tween-80
[20] = dose: 400.0 mg/kg/injection, schedule: Q04DX002 (ip), vehicle: saline with Tween-80
[21] = dose: 100.0 mg/kg/injection, schedule: Q01DX001 (ip), vehicle: saline
[22] = dose: 200.0 mg/kg/injection, schedule: Q01DX001 (ip), vehicle: saline

CCC1CN2CCc3cc(OC)c(OC)cc3C2CC1CC1NCCc2cc(OC)c(OC)cc21 (centres undefined)
T/C (dose: 2.0 mg/kg/injection, schedule: Q04DX003 (ip), vehicle: water): 93 % of control | T/C (dose: 4.0 mg/kg/injection, schedule: Q04DX003 (ip), vehicle: water): 98 % of control | T/C (dose: 8.0 mg/kg/injection, schedule: Q04DX003 (ip), vehicle: water): 94 % of control | T/C (dose: 16.0 mg/kg/injection, schedule: Q04DX003 (ip), vehicle: water): 104 % of control | T/C (dose: 32.0 mg/kg/injection, schedule: Q04DX003 (ip), vehicle: water): 102 % of control | T/C (dose: 64.0 mg/kg/injection, schedule: Q04DX003 (ip), vehicle: water): 100 % of control

CN(C)c1c(-c2ccccc2)cc(-c2ccccc2)[nH]c1=O
T/C [1]: 95 % of control | T/C [2]: 95 % of control | T/C [3]: 88 % of control

CN(C)N=Nc1nn(C2CCCO2)cc1C(N)=O (centres undefined)
T/C (dose: 100.0 mg/kg/injection, schedule: Q01DX005 (ip), vehicle: saline): 150 % of control

CCOc1ccc(NC(=O)c2cc(C(=O)O)c(C(=O)Nc3ccc(OCC)cc3)cc2C(=O)O)cc1
T/C [4]: 109 % of control | T/C [5]: 109 % of control

OCC1(Br)CCC(Br)(CO)CC1 (centres undefined)
T/C [4]: 103 % of control | T/C [6]: 104 % of control | T/C [7]: 111 % of control | T/C [8]: 98 % of control | T/C [5]: 107 % of control | T/C [9]: 96 % of control

CC(=O)Nc1ccc(C=Nc2c(N)n(C)c(=O)n(C)c2=O)cc1
T/C (dose: 50.0 mg/kg/injection, schedule: Q01DX001 (ip), vehicle: carboxymethylcellulose (CMC)): 94 % of control | T/C [1]: 96 % of control | T/C [2]: 94 % of control | T/C [3]: 90 % of control

Nc1ccc([N+](=O)[O-])cc1Cl
T/C [4]: 122 % of control | T/C [7]: 105 % of control | T/C [5]: 97 % of control

CCCCCCCCCCCCCCCCC(C(=O)OCC)C(=O)c1ccccc1 (centres undefined)
T/C [6]: 95 % of control | T/C [8]: 95 % of control | T/C [9]: 91 % of control

Cc1nnc(NC(=O)C(Cl)(Cl)Cl)s1
T/C [10]: 94 % of control | T/C (dose: 100.0 mg/kg/injection, schedule: Q04DX003 (ip), vehicle: other): 96 % of control | T/C [11]: 105 % of control | T/C (dose: 200.0 mg/kg/injection, schedule: Q04DX003 (ip), vehicle: other): 109 % of control | T/C [12]: 104 % of control | T/C (dose: 400.0 mg/kg/injection, schedule: Q04DX003 (ip), vehicle: other): 96 % of control

Cc1cccc(C)c1N(COC(C)C)C(=O)CCl
T/C [13]: 94 % of control | T/C [14]: 95 % of control

CC[N+](C)(CC)CCCNC(=O)C(c1ccccc1)c1ccccc1
T/C [6]: 100 % of control

CCNC(=O)Nc1ccc(N(CC)CC)cc1
T/C [13]: 93 % of control | T/C [6]: 103 % of control | T/C [14]: 87 % of control | T/C [8]: 96 % of control | T/C (dose: 400.0 mg/kg/injection, schedule: Q01DX009 (ip), vehicle: saline with Tween-80): 98 % of control | T/C [9]: 96 % of control

Cc1cccc(C)c1NC(=O)Nc1ccc(C(=O)O)cc1
T/C [15]: 101 % of control | T/C [16]: 108 % of control | T/C [17]: 103 % of control

O=C(Nc1cccc(C(F)(F)F)c1)c1ccco1
T/C [15]: 93 % of control | T/C [4]: 106 % of control | T/C [16]: 96 % of control | T/C [7]: 95 % of control | T/C [17]: 109 % of control | T/C [5]: 104 % of control

O=C(C[n+]1cccc(/C=N\O)c1)c1ccc(-c2ccc(C(=O)C[n+]3cccc(/C=N\O)c3)cc2)cc1
T/C (dose: 1.5 mg/kg/injection, schedule: Q01DX009 (ip), vehicle: Klucel (hydroxypropylcellulose) (HPC)): 97 % of control | T/C (dose: 2.5 mg/kg/injection, schedule: Q01DX009 (ip), vehicle: Klucel (hydroxypropylcellulose) (HPC)): 102 % of control | T/C (dose: 3.0 mg/kg/injection, schedule: Q01DX009 (ip), vehicle: Klucel (hydroxypropylcellulose) (HPC)): 97 % of control | T/C (dose: 4.0 mg/kg/injection, schedule: Q01DX009 (ip), vehicle: Klucel (hydroxypropylcellulose) (HPC)): 97 % of control | T/C (dose: 6.0 mg/kg/injection, schedule: Q01DX009 (ip), vehicle: Klucel (hydroxypropylcellulose) (HPC)): 94 % of control and 102 % of control | T/C (dose: 9.0 mg/kg/injection, schedule: Q01DX009 (ip), vehicle: Klucel (hydroxypropylcellulose) (HPC)): 92 % of control | T/C (dose: 12.0 mg/kg/injection, schedule: Q01DX009 (ip), vehicle: Klucel (hydroxypropylcellulose) (HPC)): 98 % of control | T/C (dose: 12.5 mg/kg/injection, schedule: Q01DX009 (ip), vehicle: Klucel (hydroxypropylcellulose) (HPC)): 111 % of control

Cc1cccc(Cl)c1OCC(O)COc1c(C)cccc1Cl
T/C [18]: 92 % of control | T/C [19]: 95 % of control | T/C [20]: 95 % of control

CN(C)CCCCCO
T/C (dose: 25.0 mg/kg/injection, schedule: Q01DX009 (ip), vehicle: saline with Tween-80): 96 % of control | T/C (dose: 50.0 mg/kg/injection, schedule: Q01DX009 (ip), vehicle: saline with Tween-80): 102 % of control and 87 % of control | T/C [13]: 91 % of control | T/C [6]: 97 % of control | T/C [14]: 100 % of control | T/C [8]: 100 % of control

CCCC#CC(O)(C(=O)OC)c1ccccc1 (centres undefined)
T/C [10]: 102 % of control | T/C [11]: 103 % of control | T/C [12]: 105 % of control

O=C1C2=C(CCC2)c2ccccc21
T/C [21]: 103 % of control | T/C [22]: 96 % of control

CCCC(C)C(=O)Nc1cccc(OC(=O)NC(C)C)c1 (centres undefined)
T/C [6]: 89 % of control | T/C [8]: 87 % of control | T/C [9]: 92 % of control

Nc1nccnc1Nc1ccccc1
T/C (dose: 75.0 mg/kg/injection, schedule: Q01DX001 (ip), vehicle: other): 100 % of control | T/C (dose: 150.0 mg/kg/injection, schedule: Q01DX001 (ip), vehicle: other): 100 % of control | T/C (dose: 300.0 mg/kg/injection, schedule: Q01DX001 (ip), vehicle: other): 100 % of control

CC1(C)CC(OP(=O)(N2CC2)N2CC2)CC(C)(C)N1O
T/C (dose: 50.0 mg/kg/injection, schedule: Q01DX001 (ip), vehicle: water): 102 % of control | T/C (dose: 100.0 mg/kg/injection, schedule: Q01DX001 (ip), vehicle: water): 98 % of control | T/C (dose: 200.0 mg/kg/injection, schedule: Q01DX001 (ip), vehicle: water): 102 % of control

CCOC(=O)COc1c(C(=O)OC)cc([N+](=O)[O-])cc1[N+](=O)[O-]
T/C [18]: 104 % of control | T/C [19]: 97 % of control | T/C [20]: 90 % of control

COC(=O)c1ccc(C(=O)NCCCc2c(C)nc(N)[nH]c2=O)cc1
T/C (dose: 100.0 mg/kg/injection, schedule: Q01DX001 (ip), vehicle: Klucel (hydroxypropylcellulose) (HPC)): 97 % of control | T/C (dose: 200.0 mg/kg/injection, schedule: Q01DX001 (ip), vehicle: Klucel (hydroxypropylcellulose) (HPC)): 92 % of control | T/C (dose: 400.0 mg/kg/injection, schedule: Q01DX001 (ip), vehicle: Klucel (hydroxypropylcellulose) (HPC)): 92 % of control

CCCCCCCCCCCC(=O)NC(=S)Nc1ccc(C(=O)OCC)cc1
T/C (dose: 100.0 mg/kg/injection, schedule: Q04DX002 (ip), vehicle: saline): 93 % of control | T/C (dose: 200.0 mg/kg/injection, schedule: Q04DX002 (ip), vehicle: saline): 108 % of control | T/C (dose: 400.0 mg/kg/injection, schedule: Q04DX002 (ip), vehicle: saline): 108 % of control

O=C(Oc1ccccc1[N+](=O)[O-])Oc1ccccc1[N+](=O)[O-]
T/C [1]: 96 % of control | T/C [2]: 93 % of control | T/C [3]: 104 % of control

O=P1(Nc2ccc(Cl)cc2)OCC2(CO1)COP(=O)(Nc1ccc(Cl)cc1)OC2 (centres undefined)
T/C (dose: 50.0 mg/kg/injection, schedule: Q01DX001 (ip), vehicle: saline): 98 % of control | T/C [21]: 93 % of control | T/C [22]: 101 % of control | T/C (dose: 400.0 mg/kg/injection, schedule: Q01DX001 (ip), vehicle: saline): 117 % of control
